Earlier results, collected in patent US8114298B2, “Method, device and system for water treatment” (Bromine Compounds Ltd., priority 2006, dated 2012).

Key:
[1] = at 25° C.
[2] = bleach; background statement

shelf life [2]	SMILES	solubility in water [1]
–	O=c1nc([O-])n(Cl)c(=O)n1Cl.[Na+] [NaDCC, sodium dichloroisocyanurate]	up to 24%
3-6 months	OCl [Sodium Hypochlorite]	–
